pIC50: −log10 of the molar value. Like-named read-outs stand apart in the source and are kept apart here.
What was measured:
[1] = molecular target: T1, MALT1 (Homo sapiens, UniProt Q9UDY8); assay: MALT-1 Fluorogenic Peptide Cleavage Assay (MALT1 inhibition assay); assay type: biochemical; details: Avi-tagged FL MALT-1, Ac-LRSR-AMC peptide substrate, 30 min pre-incubation, 90 min reaction
T1 construct: Avi-tagged FL MALT-1 (Pharmaron, stored at −70° C.); Avi tag
T1 sequence (Q9UDY8 1-824): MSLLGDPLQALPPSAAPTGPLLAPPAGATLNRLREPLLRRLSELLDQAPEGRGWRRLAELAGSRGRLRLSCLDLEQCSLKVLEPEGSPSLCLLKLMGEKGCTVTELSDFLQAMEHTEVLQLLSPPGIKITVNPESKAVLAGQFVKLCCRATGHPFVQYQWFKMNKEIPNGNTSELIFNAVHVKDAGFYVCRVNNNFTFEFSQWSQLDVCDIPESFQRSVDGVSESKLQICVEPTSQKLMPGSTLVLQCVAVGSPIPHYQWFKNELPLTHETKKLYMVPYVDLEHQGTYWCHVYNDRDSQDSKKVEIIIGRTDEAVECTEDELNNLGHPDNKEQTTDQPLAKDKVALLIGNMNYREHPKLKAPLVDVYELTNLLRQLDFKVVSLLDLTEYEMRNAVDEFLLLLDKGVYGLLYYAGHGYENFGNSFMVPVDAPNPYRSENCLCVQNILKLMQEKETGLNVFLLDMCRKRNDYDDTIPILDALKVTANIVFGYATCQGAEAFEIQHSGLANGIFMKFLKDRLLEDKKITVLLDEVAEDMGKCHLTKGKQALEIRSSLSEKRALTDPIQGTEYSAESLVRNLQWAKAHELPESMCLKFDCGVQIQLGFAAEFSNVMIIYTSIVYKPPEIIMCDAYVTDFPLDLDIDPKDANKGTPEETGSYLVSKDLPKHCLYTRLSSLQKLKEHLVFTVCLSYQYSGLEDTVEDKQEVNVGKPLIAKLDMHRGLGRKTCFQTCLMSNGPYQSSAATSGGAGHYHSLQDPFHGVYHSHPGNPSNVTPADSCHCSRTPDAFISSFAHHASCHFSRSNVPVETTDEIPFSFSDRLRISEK
Procedure: Inhibition of MALT1 activity by the presence of small molecules was evaluated using MALT-1 Fluorogenic Peptide Cleavage Assay. The assay utilizes a quenched AMC-labelled peptide that contains the MALT-1 recognition sequence and cleavage site (LRSR). MALT-1 mediated cleavage of the peptide relieves the quenching and leads to an increase in fluorescence at excitation (342 nm) and emission (441 nm). The following reagents were obtained commercially and used to prepare standard reagent formulations as further described below: […] The standard reagent formulations used in this assay were prepared and stored as follows. A 1.1 M solution of sodium citrate (161.3 g, 500 mL) was prepared and stored at room temperature. A 10% (w/v) CHAPS solution (2.0 g, 20 mL) was prepared and stored at 4° C. A 500 mM HEPES solution having pH of 6.89 was prepared from 200 mL of a 1 M HEPES solution having a pH of 7.5 using concentrated hydrochloric acid and brought to a final volume of 400 mL with […]® H2O. The substrate, 10 mM Ac-LRSR-AMC Peptide, was prepared (10 mg, 1.370 mL DMSO) and stored at -20° C. Compounds were plated to provide a 2% DMSO final concentration using a ProxiPlate-384 Plus F Black 384-shallow well microplate. The assay-ready plates were equilibrated to room temperature. […] DMSO was added only when compound plates had not been DMSO-backfilled to 2%. MALT-1 was thawed and kept on ice. Peptide substrate was thawed on the bench under ambient conditions. A MALT-1 enzyme working stock was prepared from Avi-tagged FL MALT-1 (40 nM in a prepared reagent volume of 16.5 μL) and the reaction buffer (13.0 mL). MALT1 working stock (5 μL) was added to each well of the microplate. MALT-1 was pre-incubated with compounds for 30 minutes at room temperature. […] The plates were covered and incubated on the bench at room temperature for 90 minutes. Fluorescence intensity was determined using a CLARIOstar microplate reader (BMG LABTECH) using the optimised AMC mode. Before taking readings, a 70% gain was applied on the neutral control well. Compound data were normalised to % Inhibition and used to plot sigmoidal concentration response curves to yield various parameters including IC50. […] Compounds in which an IC50 was not measured are designated as “N/A”.

[2] = test system: NF-kB; assay: NF-kB reporter assay in Jurkat cells stimulated with aCD3/aCD28/PMA; assay type: cell-based; details: Homo sapiens, Jurkat, read-out: NF-kB Reporter Assay IC50
Procedure: Jurkat cells were maintained in complete RPMI 1640 media supplemented with 10% FBS. Prior to the assay, 120 nL of the serial diluted compound was added in each well of 384-well flat bottom white plate (Corning #3570) by using liquid handler Echo550. Jurkat cells were harvested by centrifugation at 120 g for 10 min and resuspended in fresh RPMI 1640 media without serum. 30 μL of cells (25,000 cells) were seeded in each well of 384-well plate containing compound. After 1 hr incubation at 37° C. in a 5% CO2 incubator, 10 μL of diluted aCD3/aCD28/PMA (final concentration at 5 μg/mL, 5 μg/mL and 0.03 μg/mL, respectively) in RPMI 1640 without serum were added to each well. After incubation at 37° C. in 5% CO2 for 4 hr, 30 μL of One-Glo reagent (Promega #E6120) was added into each well. The plate was left at room temperature for 5 min and the signal was measured on EnVision (PerkinElmer).
Compounds in which an IC50 was not measured are designated as “N/A”.

[3] = Jurkat cells, 1 hr compound incubation, aCD3/aCD28/PMA stimulation 4 hr, One-Glo readout

Row | pIC50 [1] | pIC50 [2, 3] | Structure (SMILES) | pIC50 [2]
1 | 6.00 to 6.40 | > 6.40 | Cn1ncc2cccc(NS(=O)(=O)c3ccc(-n4cc(C(F)F)cn4)nc3)c21 [Example I-50, 6-[4-(Difluoromethyl)Pyrazol-1-Yl]-N-(1-Methylindazol-7-yl)Pyridine-3-Sulfonamide] | –
2 | 5.60 to 6.00 | > 6.40 | Cn1ncc2cccc(NS(=O)(=O)c3ccc(-n4ccc(C(F)F)n4)nc3)c21 [Example I-51, 6-[3-(Difluoromethyl)Pyrazol-1-Yl]-N-(1-Methylindazol-7-yl)Pyridine-3-Sulfonamide] | –
3 | < 5.60 | 5.60 to 6.00 | Cc1cnn(-c2ccc(S(=O)(=O)Nc3cccc4cnn(C)c34)cn2)n1 [Example I-52, N-(1-Methyl-1H-Indazol-7-yl)-6-(4-Methyl-2H-1,2,3-Triazol-2-yl)Pyridine-3-Sulfonamide] | –
4 | < 5.60 | 6.00 to 6.40 | Cc1cn(-c2ccc(S(=O)(=O)Nc3cccc4cnn(C)c34)cn2)nn1 [Example I-53, 6-(4-Methyl-1H-1,2,3-Triazol-1-yl)-N-(1-Methyl-1H-Indazol-7-yl)Pyridine-3-Sulfonamide] | –
5 | < 5.60 | > 6.40 | Cn1ncc2cccc(NS(=O)(=O)c3ccc(-n4cc(C5(F)CC5)cn4)nc3)c21 [Example I-55] | –
6 | < 5.60 | > 6.40 | Cn1ncc2cccc(NS(=O)(=O)c3ccc(-n4cc(C5(O)CC5)cn4)nc3)c21 [Example I-56, 6-(4-(1-hydroxycyclopropyl)-1H-pyrazol-1-yl)-N-(1-methyl-1H-indazol-7-yl)pyridine-3-sulfonamide] | –
7 | < 5.60 | > 6.40 | Cc1cnn(-c2ccc(S(=O)(=O)Nc3cccc4cnn(C)c34)cn2)c1C [Example I-57, 6-(4,5-Dimethylpyrazol-1-yl)-N-(1-Methylindazol-7-yl)Pyridine-3-Sulfonamide] | –
8 | 5.60 to 6.00 | > 6.40 | Cc1cn(-c2ccc(S(=O)(=O)Nc3cccc4cnn(C)c34)cn2)nc1C [Example I-58, 6-(3,4-Dimethylpyrazol-1-yl)-N-(1-Methylindazol-7-yl)Pyridine-3-Sulfonamide] | –
9 | < 5.60 | > 6.40 | Cc1nn(-c2ccc(S(=O)(=O)Nc3cccc4cnn(C)c34)cn2)c(C)c1C [Example I-59, N-(1-Methyl-1H-Indazol-7-yl)-6-(3,4,5-Trimethyl-1H-Pyrazol-1-yl)Pyridine-3-Sulfonamide] | –
10 | < 5.60 | > 6.40 | Cn1ncc2cccc(NS(=O)(=O)c3ccc(-n4nccc4C4CC4)nc3)c21 [Example I-62, 6-(5-Cyclopropylpyrazol-1-yl)-N-(1-Methylindazol-7-yl)Pyridine-3-Sulfonamide] | –
11 | > 6.40 | > 6.40 | Cc1ccc2cnn(C)c2c1NS(=O)(=O)c1ccc(-c2cc(C(F)(F)F)n[nH]2)nc1 [Example I-63, N-(1,6-dimethyl-1H-indazol-7-yl)-6-(5-(trifluoromethyl)-1H-pyrazol-3-yl)pyridine-3-sulfonamide] | –
12 | < 5.60 | < 5.60 | Cn1nnc2cccc(NS(=O)(=O)c3ccc(-n4cc(C(F)(F)F)cn4)nc3)c21 [Example I-64, N-(1-Methyl-1H-Benzo[D][1,2,3]Triazol-7-yl)-6-(4-(Trifluoromethyl)-1H-Pyrazol-1-yl)Pyridine-3-Sulfonamide] | –
13 | 5.60 to 6.00 | > 6.40 | Cc1cc(S(=O)(=O)Nc2cccc3cnn(C)c23)cnc1-n1cc(C(F)(F)F)cn1 [Example I-65, 5-Methyl-N-(1-Methyl-1H-Indazol-7-yl)-6-(4-(Trifluoromethyl)-1H-Pyrazol-1-yl)Pyridine-3-Sulfonamide] | –
14 | > 6.40 | > 6.40 | [2H]C([2H])([2H])Oc1ccc2cnn(C)c2c1NS(=O)(=O)c1ccc(-n2cc(C(F)(F)F)cn2)nc1 [Example I-68, N-(6-(Methoxy-D3)-1-Methyl-1H-Indazol-7-yl)-6-(4-(Trifluoromethyl)-1H-Pyrazol-1-yl)Pyridine-3-Sulfonamide] | –
15 | > 6.40 | > 6.40 | [2H]C([2H])([2H])c1ccc2cnn(C)c2c1NS(=O)(=O)c1ccc(-n2cc(C(F)(F)F)cn2)nc1 [Example I-69, N-(1-Methyl-6-(Methyl-Ds)-1H-Indazol-7-yl)-6-(4-(Trifluoromethyl)-1H-Pyrazol-1-yl)Pyridine-3-Sulfonamide] | –
16 | > 6.40 | > 6.40 | [2H]C([2H])(C)c1ccc2cnn(C)c2c1NS(=O)(=O)c1ccc(-n2cc(C(F)(F)F)cn2)nc1 [Example I-70, N-(6-(Ethyl-1,1-D2)-1-Methyl-1H-Indazol-7-yl)-6-(4-(Trifluoromethyl)-1H-Pyrazol-1-yl)Pyridine-3-Sulfonamide] | –
17 | 5.60 to 6.00 | > 6.40 | Cc1cc(NS(=O)(=O)c2ccc(-n3cc(C(F)(F)F)cn3)nc2)c2c(cnn2C)c1 [Example I-71, N-(1,5-Dimethyl-1H-Indazol-7-yl)-6-(4-(Trifluoromethyl)-1H-Pyrazol-1-yl) Pyridine-3-Sulfonamide] | –
18 | 5.60 to 6.00 | > 6.40 | COc1cc(NS(=O)(=O)c2ccc(-n3cc(C(F)(F)F)cn3)nc2)c2c(cnn2C)c1 [Example I-72, N-(5-Methoxy-1-Methylindazol-7-yl)-6-[4-(Trifluoromethyl)Pyrazol-1-Yl]Pyridine-3-Sulfonamide] | –
19 | 6.00 to 6.40 | 6.00 to 6.40 | Cn1ncc2cc(F)cc(NS(=O)(=O)c3ccc(-n4cc(C(F)(F)F)cn4)nc3)c21 [Example I-73, N-(5-Fluoro-1-Methylindazol-7-yl)-6-[4-(Trifluoromethyl)Pyrazol-1-Yl]Pyridine-3-Sulfonamide] | –
20 | > 6.40 | > 6.40 | [2H]C([2H])([2H])n1ncc2ccc(OC)c(NS(=O)(=O)c3ccc(-n4cc(C(F)(F)F)cn4)nc3)c21 [Example I-75, N-(6-Methoxy-1-(Methyl-D3)-1H-Indazol-7-yl)-6-(4-(Trifluoromethyl)-1H-Pyrazol-1-yl)Pyridine-3-Sulfonamide] | –
21 | < 5.60 | > 6.40 | Cn1ncc2cccc(NS(=O)(=O)c3ccc(-c4cc5ccccc5[nH]4)nc3)c21 [Example I-76, 6-(1H-Indol-2-yl)-N-(1-Methyl-1H-Indazol-7-yl)Pyridine-3-Sulfonamide] | –

Row | Structure (SMILES) | pIC50 [1] | pIC50 [2, 3] | pIC50 [2]
22 | COc1ncc2cnn(C)c2c1NS(=O)(=O)c1ccc(-n2cc(C(F)(F)F)cn2)nc1 [Example I-74, N-(6-methoxy-1-methyl-1H-pyrazolo[4,3-c]pyridin-7-yl)-6-(4-(trifluoromethyl)-1H-pyrazol-1-yl)pyridine-3-sulfonamide] | > 6.40 | – | > 6.40

From patent publication US20240150365A1 (Hotspot Therapeutics, Inc., priority 2022, published 2024)
